Values joined by “and” are separate entries in the source; they are usually repeats but may differ in a detail not shown here. Equal values may be shown once. ± gives the expanded uncertainty stated by the source.
Details: 101.33 kPa, relaxation calorimetry

SMILES: CCc1ncc[n-]1.CCc1ncc[n-]1.[Zn+2] [zinc(II) 2-ethylimidazolide]
- molar entropy (1 K, Glass): 0.008253 ± 0.00074 J/K/mol
- molar entropy (2 K, Glass): 0.0244 ± 0.002 J/K/mol
- molar entropy (3 K, Glass): 0.06286 ± 0.0052 J/K/mol
- molar entropy (4 K, Glass): 0.1418 ± 0.012 J/K/mol
- molar entropy (5 K, Crystal): 0.3545 ± 0.029 J/K/mol and 0.1203 ± 0.0097 J/K/mol and 0.3132 ± 0.025 J/K/mol
- molar entropy (5 K, Glass): 0.2736 ± 0.022 J/K/mol
- molar entropy (6 K, Crystal): 0.5863 ± 0.047 J/K/mol and 0.2089 ± 0.017 J/K/mol and 0.5177 ± 0.042 J/K/mol
- molar entropy (6 K, Glass): 0.464 ± 0.037 J/K/mol
- molar entropy (7 K, Crystal): 0.8825 ± 0.071 J/K/mol and 0.3306 ± 0.027 J/K/mol and 0.7801 ± 0.063 J/K/mol
- molar entropy (7 K, Glass): 0.7139 ± 0.057 J/K/mol
- molar entropy (8 K, Crystal): 1.241 ± 0.1 J/K/mol and 0.4909 ± 0.039 J/K/mol and 1.099 ± 0.088 J/K/mol
- molar entropy (8 K, Glass): 1.022 ± 0.082 J/K/mol
- molar entropy (9 K, Crystal): 1.66 ± 0.13 J/K/mol and 0.6925 ± 0.056 J/K/mol and 1.472 ± 0.12 J/K/mol
- molar entropy (9 K, Glass): 1.385 ± 0.11 J/K/mol
- molar entropy (10 K, Crystal): 2.135 ± 0.13 J/K/mol and 0.9364 ± 0.057 J/K/mol and 1.895 ± 0.12 J/K/mol
- molar entropy (10 K, Glass): 1.801 ± 0.11 J/K/mol
- molar entropy (15 K, Crystal): 5.252 ± 0.32 J/K/mol and 2.784 ± 0.17 J/K/mol and 4.686 ± 0.29 J/K/mol
- molar entropy (15 K, Glass): 4.579 ± 0.28 J/K/mol
- molar entropy (20 K, Crystal): 9.321 ± 0.57 J/K/mol and 5.606 ± 0.34 J/K/mol and 8.386 ± 0.51 J/K/mol
- molar entropy (20 K, Glass): 8.3 ± 0.51 J/K/mol
- molar entropy (25 K, Crystal): 14.04 ± 0.85 J/K/mol and 9.263 ± 0.56 J/K/mol and 12.76 ± 0.78 J/K/mol
- molar entropy (25 K, Glass): 12.73 ± 0.78 J/K/mol
- molar entropy (30 K, Crystal): 19.18 ± 1.2 J/K/mol and 13.59 ± 0.83 J/K/mol and 17.67 ± 1.1 J/K/mol
- molar entropy (30 K, Glass): 17.72 ± 1.1 J/K/mol
- molar entropy (35 K, Crystal): 24.62 ± 1.5 J/K/mol and 18.45 ± 1.1 J/K/mol and 23 ± 1.4 J/K/mol
- molar entropy (35 K, Glass): 23.14 ± 1.4 J/K/mol
- molar entropy (40 K, Crystal): 30.28 ± 1.8 J/K/mol and 23.75 ± 1.4 J/K/mol and 28.69 ± 1.7 J/K/mol
- molar entropy (40 K, Glass): 28.89 ± 1.8 J/K/mol
- molar entropy (45 K, Crystal): 36.11 ± 2.2 J/K/mol and 29.41 ± 1.8 J/K/mol and 34.67 ± 2.1 J/K/mol
- molar entropy (45 K, Glass): 34.85 ± 2.1 J/K/mol
- molar entropy (50 K, Crystal): 42.08 ± 2.6 J/K/mol and 35.35 ± 2.2 J/K/mol and 40.84 ± 2.5 J/K/mol
- molar entropy (50 K, Glass): 40.96 ± 2.5 J/K/mol
- molar entropy (60 K, Crystal): 54.27 ± 3.3 J/K/mol and 47.75 ± 2.9 J/K/mol and 53.56 ± 3.3 J/K/mol
- molar entropy (60 K, Glass): 53.5 ± 3.3 J/K/mol
- molar entropy (70 K, Crystal): 66.58 ± 4.1 J/K/mol and 60.58 ± 3.7 J/K/mol and 66.61 ± 4.1 J/K/mol
- molar entropy (70 K, Glass): 66.3 ± 4 J/K/mol
- molar entropy (80 K, Crystal): 78.9 ± 4.8 J/K/mol and 73.57 ± 4.5 J/K/mol and 79.79 ± 4.9 J/K/mol
- molar entropy (80 K, Glass): 79.14 ± 4.8 J/K/mol
- molar entropy (90 K, Crystal): 91.13 ± 5.6 J/K/mol and 86.51 ± 5.3 J/K/mol and 92.92 ± 5.7 J/K/mol
- molar entropy (90 K, Glass): 91.86 ± 5.6 J/K/mol
- molar entropy (100 K, Crystal): 103.17 ± 6.3 J/K/mol and 99.26 ± 6 J/K/mol and 105.89 ± 6.5 J/K/mol
- molar entropy (100 K, Glass): 104.37 ± 6.4 J/K/mol
- molar entropy (110 K, Crystal): 114.97 ± 7 J/K/mol and 111.76 ± 6.8 J/K/mol and 118.62 ± 7.2 J/K/mol
- molar entropy (110 K, Glass): 116.61 ± 7.1 J/K/mol
- molar entropy (120 K, Crystal): 126.51 ± 7.7 J/K/mol and 123.99 ± 7.5 J/K/mol and 131.07 ± 8 J/K/mol
- molar entropy (120 K, Glass): 128.56 ± 7.8 J/K/mol
- molar entropy (130 K, Crystal): 137.77 ± 8.4 J/K/mol and 135.92 ± 8.3 J/K/mol and 143.23 ± 8.7 J/K/mol
- molar entropy (130 K, Glass): 140.23 ± 8.5 J/K/mol
- molar entropy (140 K, Crystal): 148.77 ± 9.1 J/K/mol and 147.57 ± 9 J/K/mol and 155.11 ± 9.4 J/K/mol
- molar entropy (140 K, Glass): 151.61 ± 9.2 J/K/mol
- molar entropy (150 K, Crystal): 159.51 ± 9.7 J/K/mol and 158.95 ± 9.7 J/K/mol and 166.72 ± 10 J/K/mol
- molar entropy (150 K, Glass): 162.74 ± 9.9 J/K/mol
- molar entropy (160 K, Crystal): 170.01 ± 10 J/K/mol and 170.08 ± 10 J/K/mol and 178.07 ± 11 J/K/mol
- molar entropy (160 K, Glass): 173.62 ± 11 J/K/mol
- molar entropy (170 K, Crystal): 180.29 ± 11 J/K/mol and 180.98 ± 11 J/K/mol and 189.19 ± 12 J/K/mol
- molar entropy (170 K, Glass): 184.28 ± 11 J/K/mol
- molar entropy (180 K, Crystal): 190.36 ± 12 J/K/mol and 191.68 ± 12 J/K/mol and 200.09 ± 12 J/K/mol
- molar entropy (180 K, Glass): 194.75 ± 12 J/K/mol
- molar entropy (190 K, Crystal): 200.25 ± 12 J/K/mol and 202.19 ± 12 J/K/mol and 210.8 ± 13 J/K/mol
- molar entropy (190 K, Glass): 205.03 ± 12 J/K/mol
- molar entropy (200 K, Crystal): 209.96 ± 13 J/K/mol and 212.52 ± 13 J/K/mol and 221.34 ± 13 J/K/mol
- molar entropy (200 K, Glass): 215.14 ± 13 J/K/mol
- molar entropy (210 K, Crystal): 219.52 ± 13 J/K/mol and 222.71 ± 14 J/K/mol and 231.73 ± 14 J/K/mol
- molar entropy (210 K, Glass): 225.11 ± 14 J/K/mol
- molar entropy (220 K, Crystal): 228.95 ± 14 J/K/mol and 232.75 ± 14 J/K/mol and 241.97 ± 15 J/K/mol
- molar entropy (220 K, Glass): 234.95 ± 14 J/K/mol
- molar entropy (230 K, Crystal): 238.24 ± 15 J/K/mol and 242.68 ± 15 J/K/mol and 252.1 ± 15 J/K/mol
- molar entropy (230 K, Glass): 244.67 ± 15 J/K/mol
- molar entropy (240 K, Crystal): 247.43 ± 15 J/K/mol and 252.5 ± 15 J/K/mol and 262.12 ± 16 J/K/mol
- molar entropy (240 K, Glass): 254.28 ± 15 J/K/mol
- molar entropy (250 K, Crystal): 256.52 ± 16 J/K/mol and 262.22 ± 16 J/K/mol and 272.04 ± 17 J/K/mol
- molar entropy (250 K, Glass): 263.8 ± 16 J/K/mol
- molar entropy (260 K, Crystal): 265.53 ± 16 J/K/mol and 271.86 ± 17 J/K/mol and 281.89 ± 17 J/K/mol
- molar entropy (260 K, Glass): 273.23 ± 17 J/K/mol
- molar entropy (270 K, Crystal): 274.45 ± 17 J/K/mol and 281.43 ± 17 J/K/mol and 291.67 ± 18 J/K/mol
- molar entropy (270 K, Glass): 282.58 ± 17 J/K/mol
- molar entropy (273.15 K, Crystal): 277.25 ± 17 J/K/mol and 284.43 ± 17 J/K/mol and 294.74 ± 18 J/K/mol
- molar entropy (273.15 K, Glass): 285.51 ± 17 J/K/mol
- molar entropy (280 K, Crystal): 283.31 ± 17 J/K/mol and 290.94 ± 18 J/K/mol and 301.39 ± 18 J/K/mol
- molar entropy (280 K, Glass): 291.87 ± 18 J/K/mol
- molar entropy (290 K, Crystal): 292.12 ± 18 J/K/mol and 300.39 ± 18 J/K/mol and 311.06 ± 19 J/K/mol
- molar entropy (290 K, Glass): 301.09 ± 18 J/K/mol
- molar entropy (298.15 K, Crystal): 299.26 ± 18 J/K/mol and 308.06 ± 19 J/K/mol and 318.92 ± 19 J/K/mol
- molar entropy (298.15 K, Glass): 308.57 ± 19 J/K/mol
- molar entropy (300 K, Crystal): 300.87 ± 18 J/K/mol and 309.8 ± 19 J/K/mol and 320.7 ± 20 J/K/mol
- molar entropy (300 K, Glass): 310.26 ± 19 J/K/mol
